# Key:
# Format in all cases: cell-based
# DU-145 = assay: Inhibition of cell growth by colorimetric SRB assay, DU-145; conditions: Homo sapiens, DU-145, 48 hours exposure; for CC50: cell killing, read-out: LC50 (the source's name); for IC (total growth inhibition): read-out: TGI
# Procedure, shortened: (§1)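 Absorbance of solubilized bound SRB (490 nm) quantified cell growth and viability after cells were exposed to compound for 48 h. Seeding was 5×10^3 cells per well in RPMI 1640/10% FBS, with 18 h attachment beforehand. GI, TGI and LC were calculated from means of triplicate wells.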
# LNCaP = assay: Inhibition of cell growth by colorimetric SRB assay, LN-caP; conditions: Homo sapiens, LN-caP, 48 hours exposure; for CC50: cell killing, read-out: LC50 (the source's name); for IC (total growth inhibition): read-out: TGI
# Procedure, shortened: as §1
# IGROV = assay: Inhibition of cell growth by colorimetric SRB assay, IGROV; conditions: Homo sapiens, 48 hours exposure; for CC50: cell killing, read-out: LC50 (the source's name); for IC (total growth inhibition): read-out: TGI
# Procedure, shortened: as §1
# IGROV-ET = assay: Inhibition of cell growth by colorimetric SRB assay, IGROV-ET; conditions: Homo sapiens, IGROV-ET, 48 hours exposure; for CC50: cell killing, read-out: LC50 (the source's name); for IC (total growth inhibition): read-out: TGI
# Procedure, shortened: as §1
# SK-BR-3 = assay: Inhibition of cell growth by colorimetric SRB assay, SK-BR-3; conditions: SK-BR-3, 48 hours exposure; for GI50 / CC50: Homo sapiens; for CC50: cell killing, read-out: LC50 (the source's name); for TGI: total growth inhibition
# Procedure, shortened: as §1
# SK-MEL-28 = assay: Inhibition of cell growth by colorimetric SRB assay, MEL-28; conditions: Homo sapiens, SK-MEL-28, MEL-28, 48 hours exposure; for CC50: cell killing, read-out: LC50 (the source's name); for IC (total growth inhibition): read-out: TGI
# Procedure, shortened: as §1
# A-549 = assay: Inhibition of cell growth by colorimetric SRB assay, A-549; conditions: Homo sapiens, A549, A-549, 48 hours exposure; for CC50: cell killing, read-out: LC50 (the source's name); for IC (total growth inhibition): read-out: TGI
# Procedure, shortened: as §1
# K-562 = assay: Inhibition of cell growth by colorimetric SRB assay, K-562; conditions: Homo sapiens, K562, K-562, 48 hours exposure; for CC50: cell killing, read-out: LC50 (the source's name); for IC (total growth inhibition): read-out: TGI
# Procedure, shortened: as §1
# PANC-1 = assay: Inhibition of cell growth by colorimetric SRB assay, PANC-1; conditions: Homo sapiens, PANC-1, 48 hours exposure; for CC50: cell killing, read-out: LC50 (the source's name); for IC (total growth inhibition): read-out: TGI
# Procedure, shortened: as §1
# HT-29 = assay: Inhibition of cell growth by colorimetric SRB assay, HT-29; conditions: Homo sapiens, HT-29, 48 hours exposure; for CC50: cell killing, read-out: LC50 (the source's name); for IC (total growth inhibition): read-out: TGI
# Procedure, shortened: as §1
# LoVo = assay: Inhibition of cell growth by colorimetric SRB assay, LOVO; conditions: Homo sapiens, LOVO, 48 hours exposure; for LC50: cell killing, read-out: LC50; for IC (total growth inhibition): read-out: TGI
# Procedure, shortened: as §1
# LoVo-Dox = assay: Inhibition of cell growth by colorimetric SRB assay, LOVO-DOX; conditions: Homo sapiens, LOVO-DOX, 48 hours exposure; for LC50 (concentration for 50% cell killing): read-out: LC50; for IC (total growth inhibition): read-out: TGI
# Procedure, shortened: as §1
# HeLa = assay: Inhibition of cell growth by colorimetric SRB assay, HELA; conditions: Homo sapiens, HELA, 48 hours exposure; for CC50: cell killing, read-out: LC50 (the source's name); for IC (total growth inhibition): read-out: TGI
# Procedure, shortened: as §1
# HeLa-APL = assay: Inhibition of cell growth by colorimetric SRB assay, HELA-APL; conditions: Homo sapiens, HELA-APL, 48 hours exposure; for CC50: cell killing, read-out: LC50 (the source's name)
# Procedure, shortened: as §1
smiles,measurement,setting,value
C/C=C\[C@H](C)[C@H]1OC1(C)[C@@H](O[Si](C)(C)C(C)(C)C)[C@@H](CO[Si](C)(C)C(C)(C)C)C(=O)[C@H](CO[Si](C)(C)C(C)(C)C)[C@H](CC(=O)CC)O[Si](C)(C)C(C)(C)C (some centres unmarked) [Compound 19a],GI50,DU-145,12.1 µM
same,CC50,DU-145,12.1 µM
same,IC (total growth inhibition),DU-145,12.1 µM
same,GI50,LNCaP,12.1 µM
same,CC50,LNCaP,12.1 µM
same,IC (total growth inhibition),LNCaP,12.1 µM
same,GI50,IGROV,12.1 µM
same,CC50,IGROV,12.1 µM
same,IC (total growth inhibition),IGROV,12.1 µM
same,GI50,IGROV-ET,12.1 µM
same,CC50,IGROV-ET,12.1 µM
same,IC (total growth inhibition),IGROV-ET,12.1 µM
same,GI50,SK-BR-3,12.1 µM
same,CC50,SK-BR-3,12.1 µM
same,TGI,SK-BR-3,1.21E−05 Molar
same,GI50,SK-MEL-28,12.1 µM
same,CC50,SK-MEL-28,12.1 µM
same,IC (total growth inhibition),SK-MEL-28,12.1 µM
same,GI50,A-549,12.1 µM
same,CC50,A-549,12.1 µM
same,IC (total growth inhibition),A-549,12.1 µM
same,GI50,K-562,12.1 µM
same,CC50,K-562,12.1 µM
same,IC (total growth inhibition),K-562,12.1 µM
same,GI50,PANC-1,12.1 µM
same,CC50,PANC-1,12.1 µM
same,IC (total growth inhibition),PANC-1,12.1 µM
same,GI50,HT-29,12.1 µM
same,CC50,HT-29,12.1 µM
same,IC (total growth inhibition),HT-29,12.1 µM
same,GI50,LoVo,12.1 µM
same,LC50,LoVo,12.1 µM
same,IC (total growth inhibition),LoVo,12.1 µM
same,GI50,LoVo-Dox,12.1 µM
same,LC50 (concentration for 50% cell killing),LoVo-Dox,12.1 µM
same,IC (total growth inhibition),LoVo-Dox,12.1 µM
same,GI50,HeLa,12.1 µM
same,CC50,HeLa,12.1 µM
same,IC (total growth inhibition),HeLa,12.1 µM
same,CC50,HeLa-APL,12.1 µM
C/C=C\[C@H](C)[C@H]1OC1(C)[C@@H](O[Si](C)(C)C(C)(C)C)[C@@H](CO)C(=O)[C@H](CO)[C@H](O)CC(=O)CC (some centres unmarked) [20b + 20d],GI50,DU-145,20.5 µM
same,CC50,DU-145,20.5 µM
same,IC (total growth inhibition),DU-145,20.5 µM
same,GI50,LNCaP,12.4 µM
same,CC50,LNCaP,20.5 µM
same,IC (total growth inhibition),LNCaP,20.5 µM
same,GI50,IGROV,20.5 µM
same,CC50,IGROV,20.5 µM
same,IC (total growth inhibition),IGROV,20.5 µM
same,GI50,IGROV-ET,20.5 µM
same,CC50,IGROV-ET,20.5 µM
same,IC (total growth inhibition),IGROV-ET,20.5 µM
same,GI50,SK-BR-3,14.9 µM
same,CC50,SK-BR-3,20.5 µM
same,TGI,SK-BR-3,2.05E−05 Molar
same,GI50,SK-MEL-28,20.5 µM
same,CC50,SK-MEL-28,20.5 µM
same,IC (total growth inhibition),SK-MEL-28,20.5 µM
same,GI50,A-549,20.5 µM
same,CC50,A-549,20.5 µM
same,IC (total growth inhibition),A-549,20.5 µM
same,GI50,K-562,10.3 µM
same,CC50,K-562,20.5 µM
same,IC (total growth inhibition),K-562,20.5 µM
same,GI50,PANC-1,9.37 µM
same,CC50,PANC-1,20.5 µM
same,IC (total growth inhibition),PANC-1,20.5 µM
same,GI50,HT-29,20.5 µM
same,CC50,HT-29,20.5 µM
same,IC (total growth inhibition),HT-29,20.5 µM
same,GI50,LoVo,20.5 µM
same,LC50,LoVo,20.5 µM
same,IC (total growth inhibition),LoVo,20.5 µM
same,GI50,LoVo-Dox,20.5 µM
same,LC50 (concentration for 50% cell killing),LoVo-Dox,20.5 µM
same,IC (total growth inhibition),LoVo-Dox,20.5 µM
same,GI50,HeLa,20.5 µM
same,CC50,HeLa,20.5 µM
same,IC (total growth inhibition),HeLa,20.5 µM
same,CC50,HeLa-APL,20.5 µM
C/C=C\[C@H](C)[C@H]1O[C@@]1(C)[C@@H](O)[C@@H](CO)C(=O)[C@H](CO)[C@@H](O)CC(=O)CC [3a + 4a],GI50,DU-145,0.0631 µM
same,CC50,DU-145,2.03 µM
same,IC (total growth inhibition),DU-145,0.403 µM
same,GI50,LNCaP,0.0819 µM
same,CC50,LNCaP,5.32 µM
same,IC (total growth inhibition),LNCaP,0.553 µM
same,GI50,IGROV,0.073 µM
same,CC50,IGROV,3.92 µM
same,IC (total growth inhibition),IGROV,0.376 µM
same,GI50,IGROV-ET,0.1 µM
same,CC50,IGROV-ET,26.8 µM
same,IC (total growth inhibition),IGROV-ET,1.07 µM
same,GI50,SK-BR-3,0.0303 µM
same,CC50,SK-BR-3,5.34 µM
same,TGI,SK-BR-3,4.75E−07 Molar
same,GI50,SK-MEL-28,0.0754 µM
same,CC50,SK-MEL-28,12 µM
same,IC (total growth inhibition),SK-MEL-28,0.832 µM
same,GI50,A-549,0.144 µM
same,CC50,A-549,15.6 µM
same,IC (total growth inhibition),A-549,2.59 µM
same,GI50,K-562,0.521 µM
same,CC50,K-562,8.4 µM
same,IC (total growth inhibition),K-562,1.46 µM
same,GI50,PANC-1,0.0897 µM
same,CC50,PANC-1,26.8 µM
same,IC (total growth inhibition),PANC-1,2.95 µM
same,GI50,HT-29,0.0601 µM
same,CC50,HT-29,26.8 µM
same,IC (total growth inhibition),HT-29,1.18 µM
same,GI50,LoVo,0.0822 µM
same,LC50,LoVo,17.7 µM
same,IC (total growth inhibition),LoVo,1.35 µM
same,GI50,LoVo-Dox,0.152 µM
same,LC50 (concentration for 50% cell killing),LoVo-Dox,26.8 µM
same,IC (total growth inhibition),LoVo-Dox,1.36 µM
same,GI50,HeLa,0.0728 µM
same,CC50,HeLa,7.14 µM
same,IC (total growth inhibition),HeLa,0.55 µM
same,CC50,HeLa-APL,14.7 µM
same,GI50,HeLa-APL; read-out: GI50,0.0733 µM
same,IC (total growth inhibition),"HeLa-APL; total growth inhibition, read-out: TGI",0.983 µM
